# Test results published in US8841310B2, “Combinations of a pyrimidine containing NNRTI with RT inhibitors” (Janssen R & D Ireland, priority 2003, dated 2014).
# Tested on: monotropic HIV strain Ba-L
# Assay: MO-DC/CD4(+) T cell co-culture model of sexual HIV transmission
# Format: cell-based
# Conditions: Human immunodeficiency virus 1, BAL, T-cell, 336 h, read-out: EC50 (concentration suppressing 50% of viral replication)
# Description: Immature monocyte derived dendritic cells (immMO-DC) represent a good model for interstitial dendritic cells, which are early targets during sexual HIV transmission and important initiators of the immune response. These immMO-DC were used in “in vitro” models to test the prevention of HIV infection via sexual intercourse or related intimate contact between partners.
# For instance, in one model, monocyte-derived dendritic cells (MO-DC) were infected for 2-hours with the monotropic HIV strain Ba-L at a multiplicity of infection (MOI) of 10^−3. After infection, cells were washed 6 times and resuspended in 10% BCS at 400.000 cells/ml. Autologous CD4(+) T cells were purified out of the lymphocyte fraction of the same elutration as the MO-DC and used at a concentration of 2×10^6 cells/ml ((ratio MO-DC/CD4(+) T: 1/5).
# A serial dilution of a compound of formula (I) (test compound) was added to the MO-DC/CD4(+) T cell co-cultures. Each experiment was done in 96-well plates, in which each cup contained 50 μl of MO-DC, 50 μl of CD4(+) T cells and 100 μl of test compound. Half of the culture medium, with test compound, was refreshed twice weekly. Supernatants were analysed in ELISA after 14 days of culture. To determine antiviral activity, the test compound concentration able to suppress 50% of the viral replication at the end of the primary cultures (EC50) was measured.
smiles,measurement,value
"Cc1cc(/C=C/C#N)cc(C)c1Nc1ccnc(Nc2ccc(C#N)cc2)n1 [E-TMC278, (E)-4-[[4-[[4-(2-cyanoethenyl)-2,6-dimethylphenyl]-amino]-2-pyrimidinyl]-amino]-benzonitrile]",EC50,0.55 nM
